From patent US20170029451A1, “BRANCHED CHAIN ACYCLIC NUCLEOSIDE PHOSPHONATE ESTERS AND METHODS OF SYNTHESIS AND USES THEREOF” (CHIMERIX, INC., priority 2013, published 2017)
pEC50: −log10 of the molar value. Like-named read-outs stand apart in the source and are kept apart here.

How the values were obtained:
HCMV (Strain AD169) = assay: Plaque reduction assay, HCMV AD169 in human foreskin fibroblast cells; format: cell-based, Human Cytomegalovirus (HCMV); details: for pEC50: Human betaherpesvirus 5, AD169, Fibroblast
[1] = Cytotoxicity in MEF cells; format: cell-based; details: mouse, cell line MEF (MCMV row)
[2] = system: HCMV UL54 resistant mutant 4955^R; assay: microbe, parasite or virus in culture; format: cell-based, Human Cytomegalovirus (HCMV); details: Human betaherpesvirus 5, Fibroblast
[3] = CellTiter-Glo cytotoxicity assay in Akata cells; details: human
[4] = Cytotoxicity (CC50) in MT4 cells; format: cell-based; details: human
Procedure: Costar 96-well tissue culture plates were seeded with 5,000 MT4 cells (NIH AIDS Reagents Program)/well in RPMI (Lonza, Cat 12-11F) containing 10% Hyclone Standard Fetal Bovine Serum (FBS, Cat 5H30088.03), 1% Hyclone Penicillin and Streptomycin (Cat SV30010), and 2 mM Lonza L-Glutamine (Cat 17-605E). Outer wells were not used to minimize the edge-effect produced by extended incubations. Serial dilutions of test compounds were added to the cells and plates were incubated for 6 days at 37° C. in 5% CO2. After 6 days of incubation 40 μL of Cell Titer 96® Aqueous MTS Reagent (Promega, G111) was added as directed by manufacturer to the 200 μL media in each well and incubated at 37° C. until the untreated-cell controls developed an 490 nm absorbance between 1.1 and 1.8. The final absorbance readings were read using a BioTek Synergy 2, and Gen 5 software (BioTek Instruments, Inc.) was used to calculate the concentration which inhibited MT4 cells by 50% (CC50).

[5] = Cytotoxicity in MOLT-3 cells; format: cell-based; details: human, cell line MOLT-3 (HHV-6B row)
Procedure: Cell viability in all assays with lymphocytes was assessed with the CellTiter-Glo Luminescent Cell Viability Assay (Promega). Briefly, assay plates were incubated at ambient temperature for 30 min then 50 µl of CellTiter-Glo reagent was added to each well and the plates were mixed for 2 min on an orbital shaker to lyse the cells. Plates were then incubated for an additional 10 min at ambient temperature and the luminescence was quantified on a luminometer. Standard methods were used to calculate drug concentrations that inhibited the proliferation of Akata, HSB-2, BCLB-1, or Molt-3 cells by 50% (CC50).

in vitro = details: dog
MCMV = MCMV antiviral activity in MEF cells; format: cell-based; details: Virus MCMV, cell line MEF
[6] = system: Influenza virus A/CA/10/2009; assay: microbe, parasite or virus in culture; format: cell-based; details: unidentified influenza virus, MDCK, read-out: A/CA/10/2009 (EC50, μM)
Epstein-Barr virus = assay: DNA Hybridization Assay for EBV in Akata cells; format: cell-based; details: human gammaherpesvirus 4, read-out: Efficacy DNA Hybridization Assay (EC50)
Procedure: Akata cells latently infected with EBV were obtained from John Sixbey. The GS strain of HHV-6A was obtained through the NIH AIDS Research and Reference Reagent Program.
Each experiment that evaluated the antiviral activity of the compounds included both positive and negative control compounds to ensure the performance of each assay. Concurrent assessment of cytotoxicity was also performed for each study at equivalent levels of compound exposure. When sufficient material was available, multiple assays were performed for each compound evaluation to obtain statistical data.
Assays for EBV were performed in Akata cells that were induced to undergo a lytic infection with 50 μg/ml of a goat anti-human IgG antibody by standard methods. Experimental compounds were diluted in round bottom 96-well plates to yield concentrations ranging from 20 to 0.016 μM. Akata cells were added to the plates at a concentration of 4×10^4 cells per well and incubated for 72 h. For HHV-6 assays, compounds were serially diluted in 96-well plates then 1×10^4 uninfected HSB-2 or Molt-3 cells were added to each well. Infection was initiated by adding HHV-6A infected HSB-2 cells, or HHV-6B infected Molt-3 cells, at a ratio of approximately 1 infected cell for every 10 uninfected HSB-2 cells or Molt-3 cells respectively and incubated for 7 d at 37° C. […]

[7] = system: Vaccinia Virus (Strain Copenhagen); assay: microbe, parasite or virus in culture; format: cell-based; details: Orthopoxvirus vaccinia, Fibroblast, read-out: VACV EC50, μM
[8] = system: Herpes Simplex Virus 1 (Strain E-377); assay: Plaque reduction assay, HSV-1 in human foreskin fibroblast cells; format: cell-based; details: Human alphaherpesvirus 1; Strain E-377, human foreskin fibroblast cells
[9] = system: Cowpox Virus (Strain Brighton); assay: microbe, parasite or virus in culture; format: cell-based; details: Fibroblast, read-out: CPXV EC50, μM
[10] = Cytotoxicity in 2.2.15 cells; format: cell-based; details: human, cell line 2.2.15 (HBV row)

Q: With `CC(C)CCCCCCCCCCCCCCOCCCOP(=O)(O)COC(CO)Cn1ccc(=O)[nH]c1=O` (stereo not drawn) [Compound 12] as the compound, how does the pEC50 (HCMV (Strain AD169); Strain AD169, human foreskin fibroblast cells, read-out: HCMV EC50) read?
A: 7.28

Q: What about the pEC50 (HCMV (Strain AD169); Virus AD169, human foreskin fibroblast cells (Table 3), read-out: EC50) of the same compound?
A: ~7.28

Q: What about the EC90 (HCMV (Strain AD169); Human betaherpesvirus 5, Virus AD169, human foreskin fibroblast cells) of the same compound?
A: 0.15 µM

Q: And the CC50 [1]?
A: 60 µM

Q: And the EC50 ([2]; read-out: EC50 μM, Virus 4955^R, human foreskin fibroblast cells)?
A: ~0.143 µM

Q: And the EC90 ([2]; read-out: EC90 μM)?
A: 0.372 µM

Q: What about the CC50 [3] of the same compound?
A: 18 µM

Q: What about the CC50 at 6 days ([4]; MT4 cells (Table 7), read-out: MT4 CC50) of the same compound?
A: 25.6 µM

Q: What about the CC50 at 6 days ([4]; Mean XC50 (Table 9), read-out: MT4 cytotoxicity CC50) of the same compound?
A: 24.7 µM

Q: What about the CC50 [5] of the same compound?
A: 8.4 µM

Q: What about the CC50 (in vitro) of the same compound?
A: 17.2 µM

Q: And the pEC50 (MCMV)?
A: 5.80

Q: What about the EC50 [6] of the same compound?
A: > 4 µM

Q: What about the pEC50 (Epstein-Barr virus) of the same compound?
A: < 5.00

Q: What about the EC50 [7] of the same compound?
A: > 10 µM

Q: And the pEC50 [8]?
A: < 4.30

Q: What about the EC50 [9] of the same compound?
A: > 10 µM

Q: And the CC50 [10]?
A: 34 µM
